Assay results published in US20230250054A1, “SELECTIVE HISTONE DEACETYLASE 6 INHIBITORS” (The Board of Trustees of the University of Illinois, priority 2020, published 2023).

Tests used:
HDAC6 = molecular target: T1, HDAC6 (Homo sapiens, UniProt Q9UBN7); assay: Fluorescence-based HDAC inhibition assay, HDAC6; format: biochemical; conditions: Table 2
T1 construct: our assay that uses approximately 0.6 nM concentration of the full-length enzyme; made in house; host or cells: HEK293/T17 cells, transient transfection
T1 sequence (Q9UBN7 1-1215): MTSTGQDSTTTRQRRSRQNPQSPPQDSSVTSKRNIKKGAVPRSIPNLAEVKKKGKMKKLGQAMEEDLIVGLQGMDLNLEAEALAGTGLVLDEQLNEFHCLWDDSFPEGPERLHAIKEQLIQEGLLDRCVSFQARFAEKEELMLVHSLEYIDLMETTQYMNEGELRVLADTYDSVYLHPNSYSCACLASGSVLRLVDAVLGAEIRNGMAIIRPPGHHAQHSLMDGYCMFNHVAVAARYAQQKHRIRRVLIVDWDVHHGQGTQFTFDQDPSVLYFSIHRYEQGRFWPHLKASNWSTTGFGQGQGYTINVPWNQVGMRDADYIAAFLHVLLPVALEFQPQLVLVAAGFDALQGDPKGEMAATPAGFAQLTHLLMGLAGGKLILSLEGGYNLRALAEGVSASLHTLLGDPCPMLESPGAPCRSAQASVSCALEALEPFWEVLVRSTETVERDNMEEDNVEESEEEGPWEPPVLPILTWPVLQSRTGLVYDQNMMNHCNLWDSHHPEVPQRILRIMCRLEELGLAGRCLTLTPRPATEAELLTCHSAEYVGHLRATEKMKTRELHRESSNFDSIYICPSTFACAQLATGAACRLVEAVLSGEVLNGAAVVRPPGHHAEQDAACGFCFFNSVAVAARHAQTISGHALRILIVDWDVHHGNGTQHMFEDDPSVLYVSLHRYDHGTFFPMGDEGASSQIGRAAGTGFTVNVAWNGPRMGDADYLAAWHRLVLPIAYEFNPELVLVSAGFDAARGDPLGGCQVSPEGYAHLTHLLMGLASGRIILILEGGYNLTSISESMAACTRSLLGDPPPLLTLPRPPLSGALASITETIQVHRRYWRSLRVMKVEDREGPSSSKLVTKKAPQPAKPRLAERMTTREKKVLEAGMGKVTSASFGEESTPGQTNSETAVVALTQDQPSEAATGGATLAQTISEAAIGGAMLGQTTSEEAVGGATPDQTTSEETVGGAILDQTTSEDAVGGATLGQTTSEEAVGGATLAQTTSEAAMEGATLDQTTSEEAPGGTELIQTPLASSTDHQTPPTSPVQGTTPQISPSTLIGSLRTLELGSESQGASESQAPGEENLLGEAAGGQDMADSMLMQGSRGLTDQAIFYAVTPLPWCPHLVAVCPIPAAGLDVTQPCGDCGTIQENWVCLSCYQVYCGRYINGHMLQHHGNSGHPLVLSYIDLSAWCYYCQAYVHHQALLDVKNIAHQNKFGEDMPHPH
Description: (§1) Briefly, transiently transfected cells were harvested three days post-transfection and the cell pellets resuspended in a lysis buffer (50 mM Tris, 150 mM NaCl, 10 mM KCl, 2 mM MgCl2, 10% glycerol, 0.2% NP-40, 2 Units/mL benzonase, pH 8) supplemented with a cocktail of protease inhibitors (Roche, Basel, Switzerland). Cells were lysed by sonication (30 W; 3×20 s) on ice, and the cell lysate cleared by centrifugation at 40 000×g for 30 min at 4° C. […] Purified proteins were concentrated to 1 mg/mL, aliquoted, flash-frozen in liquid nitrogen, and stored at −80° C. until further use.
(§2) Briefly, individual HDACs were preincubated with dilution series of tested inhibitors (0-100 μM) in a 384-well plate in the total volume of 40 μL for 10 min at 37° C. in a reaction buffer comprising 50 mM HEPES, 140 mM NaCl, 10 mM KCl, 1 mM TCEP, 0.1% BSA, pH 7.4. Deacetylation reaction was started by the addition of 10 μL of a 10 μM substrate into the HDAC/inhibitor mixture. Following the 30 min incubation at 37° C., the reaction was terminated by the addition of 25 μL of the trypsin solution (4 mg/mL). Fluorescence development by trypsin was carried out at 37° C. for 15 and 60 min for Ac-GAK(Ac)-AMC and Boc-Lys(TFA)-AMC substrate, respectively. […] Non-linear regression analysis was employed to calculate IC50 values using the GraphPad Prism software. […] Reactions without the enzyme or the inhibitor were used to define 0% and 100% of the HDAC activity, respectively.

HDAC1 = molecular target: T2, HDAC1 (Homo sapiens, UniProt Q13547); assay: Fluorescence-based HDAC inhibition assay, HDAC1; format: biochemical; conditions: ratio HDAC1 IC50 / HDAC6 IC50, Table 2
T2 construct: made in house; host or cells: HEK293/T17 cells, transient transfection
Description: as §1, §2

T2 sequence (Q13547 whole entry): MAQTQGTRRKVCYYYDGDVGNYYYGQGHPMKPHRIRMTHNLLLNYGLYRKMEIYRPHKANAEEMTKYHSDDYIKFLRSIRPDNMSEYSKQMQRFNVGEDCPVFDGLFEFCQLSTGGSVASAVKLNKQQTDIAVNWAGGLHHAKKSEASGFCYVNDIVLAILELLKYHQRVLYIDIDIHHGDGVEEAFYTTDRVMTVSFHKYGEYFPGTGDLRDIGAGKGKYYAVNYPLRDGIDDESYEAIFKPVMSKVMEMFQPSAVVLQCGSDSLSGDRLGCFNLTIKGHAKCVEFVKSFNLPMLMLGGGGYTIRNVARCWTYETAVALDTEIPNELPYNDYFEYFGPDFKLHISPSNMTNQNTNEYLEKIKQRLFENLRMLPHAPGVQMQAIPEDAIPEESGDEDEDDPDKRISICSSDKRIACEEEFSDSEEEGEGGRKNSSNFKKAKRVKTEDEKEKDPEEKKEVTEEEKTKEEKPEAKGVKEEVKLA

IC50 (HDAC6) [µM]	Structure (SMILES)	HDAC1/6 (HDAC1)
16.8	NCc1ccc(NC(=O)N(CCCCO)Cc2ccc(C(=O)O)cc2)cc1 [Compound 6d, 4-((3-(4-(Aminomethyl)phenyl)-1-(4-hydroxybutyl)ureido)methyl)benzoic acid]	
> 30	NCc1ccc(NC(=O)N(CCCCO)Cc2ccc(C(N)=O)cc2)cc1 [Compound 6e, 4-((3-(4-(Aminomethyl)phenyl)-1-(4-hydroxybutyl)ureido)methyl)benzamide]	
> 30	NCc1ccc(NC(=O)N(CCCCO)Cc2ccc(B(O)O)cc2)cc1 [Compound 6f, (4-((3-(4-(Aminomethyl)phenyl)-1-(4-hydroxybutyl)ureido)methyl)phenyl)boronic acid]	
	O=C(CCCCCCC(=O)Nc1ccccc1)NO [Vorinostat, reference compound]	5
